Data from patent US12054447B2, “PCNA inhibitors” (City of Hope, priority 2015, dated 2024).

Key:
[1] = test system: γH2A.X, caspase-3 and caspase-9 in SK-N-DZ cells; assay: Western blot; type: cell-based, human; conditions: NB cells (SK-N-DZ), 500 nM
Protocol: (§1) Cells were dissolved into the Laemmli sample buffer on the plate. The whole cell extracts were sonicated, and the proteins in the lysate were resolved using a 4-12% SDS polyacrylamide gel, and the resolved proteins were blotted onto a nitrocellulose membrane. Antibodies specific to H2A.X, cleaved caspase-3, full-length caspase-3, or cleaved caspase-9 were purchased from Cell Signaling Technology (Danvers, MA). The anti-γH2A.X antibody was purchased from Millipore. The membrane was blocked with 5% nonfat dry milk and incubated individually with each of these antibodies dissolved in the blocking buffer. After incubation with peroxidase-conjugated secondary antibodies, the protein of interest was detected using an ECL kit purchased from Thermo Fisher Scientific (Waltham, MA).

[2] = test system: γH2A.X in 7SM0032 cells; assay: Western blot; type: cell-based, human; conditions: 500 nM
Protocol: as §1

[3] = Stability in plasma; type: in vitro ADME
Description: FIGS. 8A-8B. FIG. 8A depicts an illustration of AOH1160 degradation by amide cleavage in mouse plasma. FIG. 8B depicts the stability of AOH1160 in human and animal plasma. […] AOH1160 is stable in the plasma of canine, monkey, and human, as well as in the plasma of ES-1-deficient mice (Es1e/SCID).
AOH1160 was degraded in the plasma collected from a wildtype Balb/c mouse, see FIGS. 8A-8B. […] AOH1160 is stable in the plasma of canine, monkey, and human, as well as in the plasma of ES-1-deficient mice (Es1e/SCID).

[4] = biological target: human TRβ (Homo sapiens, UniProt P10828); assay: Human thyroid hormone receptor beta (TRβ) reporter assay; type: cell-based; conditions: TRβ reporter cells, 24 h
Description: Reporter cells constitutively expressing human TRβ and containing a luciferase reporter gene functionally linked to a TRβ-responsive promoter were purchased from Indigo Biosciences (State College, PA). […] The effect of each compound on TRβ activity was examined by measuring the luciferase reporter gene expression according to the manufacturer's instruction.

[5] = test system: 7SM0032; assay: TUNEL assay (apoptosis); type: cell-based, human; conditions: 7SM0032 cells, 500 nM, 24 h
Protocol: To measure the effect of the compounds on cell growth, cells were seeded at 3×10^4/ml into a 96-well plate. Once attached, cells were treated with various concentrations of AOH1160 for 72 h. Cell growth was measured by the CellTitor-Glo assay (Promega, Madison, WI) according to the manufacturer's instructions. To measure apoptosis, cells were seeded at 1×10^5/ml onto a chamber slide. Once attached, cells were treated with the 500 nM AOH1160 for 24 h. Cells were fixed and analyzed by a TUNEL assay using the TMR red in situ cell death detection kit (Roche Diagnostics, Indianapolis, IN).

[6] = test system: NCI-60 panel; assay: NCI-60 panel test, median over the panel; type: cell-based; conditions: 60 cancer cell lines, 5-dose study
Protocol: FIG. 7. NCI-60 panel test. The effect of AOH1160 on growth of the NCI-60 panel, which consists of 60 cancer cell lines representing 9 major cancer types, was tested in a 5-dose study. Shown are the Log IC50 values determined for each cell line. […] This study was performed by the National Institute of Cancer.
As observed in FIG. 7, the effect of AOH1160 on growth of the NCI-60 panel, which consists of 60 cancer cell lines representing 9 major cancer types, was tested in a 5-dose study. Shown are the Log IC50 values determined for each cell line.

[7] = test system: HCT-116; assay: AOH1160 IC50 in additional cancer cell lines (Table 4); type: cell-based; conditions: Homo sapiens; HCT-116, Colon
Description: (§2) In addition numerous analogs related to AOH1160 were screened in numerous neuroblastoma cell lines for anti-cancer activity (Table 2). AOH1160 was screened for anti-cancer activity in additional cancer cell lines besides neuroblastoma (Table 3).

[8] = test system: DU-145; assay: as above; type: cell-based; conditions: Homo sapiens; DU-145, Prostate
Description: as §2

[9] = test system: HL-60; assay: as above; type: cell-based; conditions: Homo sapiens; HL-60, Leukemia
Description: as §2

[10] = test system: A549; assay: as above; type: cell-based; conditions: Homo sapiens; A549, Non-Small Cell Lung
Description: as §2

[11] = test system: NCI-H322M; assay: as above; type: cell-based; conditions: Homo sapiens, Non-Small Cell Lung
Description: as §2

[12] = test system: HCT-15; assay: as above; type: cell-based; conditions: Homo sapiens; HCT-15, Colon
Description: as §2

[13] = test system: OVCAR-8; assay: as above; type: cell-based; conditions: Homo sapiens; OVCAR-8, Ovarian
Description: as §2

[14] = test system: NCI-H23; assay: as above; type: cell-based; conditions: Homo sapiens; NCI-H23, Non-Small Cell Lung
Description: as §2

[15] = test system: brain tumors; assay: Brain tumors in mice, luciferase imaging; type: in vivo; conditions: given once weekly to tumor bearing mice
Protocol: (§3) FIG. 12. Effects of AOH1160 on brain tumors in mice. The compound was given to tumor bearing mice once weekly. The brain cancer cells used in this study contains a luciferase. For measuring tumor growth, luciferin was injected into each mouse. The relative growth of the tumors in live mice was determined by measuring luminescent signals by a CCD camera.
as §3, with “The” for “FIG. 12. Effects of AOH1160 on brain tumors in mice. The”, “compound (AOH1160)” for “compound”, “give into” for “given to”

Sequence of human TRβ (P10828 whole entry): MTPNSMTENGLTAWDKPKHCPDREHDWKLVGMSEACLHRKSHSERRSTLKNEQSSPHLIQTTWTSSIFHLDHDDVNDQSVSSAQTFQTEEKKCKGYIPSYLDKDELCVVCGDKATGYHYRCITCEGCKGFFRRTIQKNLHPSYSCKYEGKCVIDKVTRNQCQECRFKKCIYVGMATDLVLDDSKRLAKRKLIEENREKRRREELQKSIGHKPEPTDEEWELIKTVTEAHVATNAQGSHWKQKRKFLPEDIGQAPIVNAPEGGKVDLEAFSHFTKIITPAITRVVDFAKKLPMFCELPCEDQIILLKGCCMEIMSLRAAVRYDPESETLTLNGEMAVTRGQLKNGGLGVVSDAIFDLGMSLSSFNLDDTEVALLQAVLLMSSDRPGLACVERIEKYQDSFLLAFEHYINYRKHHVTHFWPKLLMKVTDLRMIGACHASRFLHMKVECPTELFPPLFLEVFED

In the case of `O=C(CNC(=O)c1cccc2ccccc12)Nc1ccccc1Oc1ccccc1` [AOH1160], the caspase activation [1] is reported as “activation of caspase-3 and caspase-9”, the γH2A.X levels [1] is reported as “increases γH2A.X levels” and the “intracellular γH2A.X level” value [2] is reported as “Nor does it increase intracellular γH2A.X level”. For the same compound, the stability in plasma ([3]; canine plasma) was “stable”, the stability in plasma ([3]; human plasma) was “stable” and the stability in plasma ([3]; monkey plasma) was “stable”. The stability in plasma ([3]; plasma of ES-1-deficient mice (Es1e/SCID)) was “stable”, the stability in plasma ([3]; wildtype Balb/c mouse plasma) was “quickly degraded” and the “thyroid hormone activity in a TR reporter assay” value [4] was “did not show any thyroid hormone activity”. The apoptosis [5] was “Nor does it increase intracellular γH2A.X level (FIG. 2B) or cause apoptosis”, the IC50 [6] was ~320 nM and the IC50 [7] was 102 nM. For the same compound, the IC50 [8] was 200 nM, the IC50 [9] was 128 nM and the IC50 [10] was 173 nM. For the same compound, the IC50 [11] was 157 nM, the IC50 [12] was 133 nM and the IC50 [13] was 204 nM. For the same compound, the IC50 [14] was 194 nM and the “brain tumor growth (luminescent signals)” value [15] was “inhibited brain tumor growth”.
